In the NIST ThermoML archive (doi:10.1021/je300252d):
Numbers after ± are expanded uncertainties.

Test: mn = molality of the nth substance listed, in mol/kg
Conditions: 100 kPa, Liquid, Direct current cell with electrodes

CCCC[N+](CCCC)(CCCC)CCCC.[Br-] [tetrabutylammonium bromide] + CN(C)C=O
Conditions | molar conductivity [S·m2/mol]
283.15 K, m1 = 9.197e-05 | 0.006236 ± 9.7e-06
283.15 K, m1 = 0.0002922 | 0.006141 ± 8.1e-06
283.15 K, m1 = 0.0004908 | 0.006078 ± 6.1e-06
283.15 K, m1 = 0.0006894 | 0.0060258 ± 4.7e-06
283.15 K, m1 = 0.001222 | 0.0059158 ± 4e-06
283.15 K, m1 = 0.00199 | 0.0057906 ± 3.3e-06
283.15 K, m1 = 0.002938 | 0.0056698 ± 2.9e-06
283.15 K, m1 = 0.003964 | 0.0055611 ± 2.4e-06
283.15 K, m1 = 0.005897 | 0.005399 ± 2.2e-06
283.15 K, m1 = 0.007916 | 0.0052571 ± 2e-06
283.15 K, m1 = 0.009885 | 0.0051385 ± 1.9e-06
283.15 K, m1 = 0.01187 | 0.0050378 ± 1.8e-06
288.15 K, m1 = 0.0002384 | 0.006641 ± 1e-05
288.15 K, m1 = 0.0003637 | 0.006588 ± 7.4e-06
288.15 K, m1 = 0.0005543 | 0.0065255 ± 6.3e-06
288.15 K, m1 = 0.0007699 | 0.0064657 ± 5e-06
288.15 K, m1 = 0.001232 | 0.0063637 ± 4.2e-06
288.15 K, m1 = 0.00201 | 0.0062266 ± 3.5e-06
288.15 K, m1 = 0.002974 | 0.0060937 ± 3.1e-06
288.15 K, m1 = 0.003946 | 0.005981 ± 2.6e-06
288.15 K, m1 = 0.005906 | 0.0058005 ± 2.3e-06
288.15 K, m1 = 0.007894 | 0.0056496 ± 2.1e-06
288.15 K, m1 = 0.009876 | 0.0055214 ± 2e-06
288.15 K, m1 = 0.01183 | 0.0054109 ± 1.9e-06
293.15 K, m1 = 0.000124 | 0.007196 ± 1.2e-05
293.15 K, m1 = 0.000358 | 0.007067 ± 9.5e-06
293.15 K, m1 = 0.0005617 | 0.006993 ± 7e-06
293.15 K, m1 = 0.0007496 | 0.0069356 ± 5.5e-06
293.15 K, m1 = 0.001203 | 0.006825 ± 4.6e-06
293.15 K, m1 = 0.001974 | 0.0066764 ± 3.8e-06
293.15 K, m1 = 0.002962 | 0.006528 ± 3.3e-06
293.15 K, m1 = 0.003941 | 0.0064046 ± 2.7e-06
293.15 K, m1 = 0.005913 | 0.0062071 ± 2.4e-06
293.15 K, m1 = 0.007899 | 0.0060446 ± 2.2e-06
293.15 K, m1 = 0.009903 | 0.0059059 ± 2e-06
293.15 K, m1 = 0.01185 | 0.0057855 ± 1.9e-06
298.15 K, m1 = 8.12e-05 | 0.00773 ± 1.3e-05
298.15 K, m1 = 0.0003247 | 0.007565 ± 1.2e-05
298.15 K, m1 = 0.0005335 | 0.007478 ± 7.7e-06
298.15 K, m1 = 0.000754 | 0.0074043 ± 6e-06
298.15 K, m1 = 0.001188 | 0.0072894 ± 4.9e-06
298.15 K, m1 = 0.001985 | 0.0071236 ± 4e-06
298.15 K, m1 = 0.002972 | 0.0069641 ± 3.4e-06
298.15 K, m1 = 0.003989 | 0.0068266 ± 2.9e-06
298.15 K, m1 = 0.005892 | 0.0066212 ± 2.6e-06
298.15 K, m1 = 0.007909 | 0.0064436 ± 2.3e-06
298.15 K, m1 = 0.009849 | 0.0062996 ± 2.1e-06
298.15 K, m1 = 0.0119 | 0.0061631 ± 2e-06
